Measurements as given in ChEMBL document CHEMBL1201862, “PubChem BioAssay data set” (2004).
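Five compound concentrations were applied to cells in 96-well plates for 48 hours; endpoints were derived by simple linear interpolation of the resulting dose-response curve. GI50 marks 50% less growth.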 Calls of active or inactive are those of the source. No stated cut-off is given here; in the data, active = GI50 up to about 1.1 µM and inactive = higher.

Legend:
Test in all cases: NCI-60 cell line screen, 48 h
HCT-116 = test system: HCT-116
ACHN = test system: ACHN
RXF 393 = test system: RXF 393
MCF7 = test system: MCF7
SF-295 = test system: SF-295
SF-268 = test system: SF-268
HCT-15 = test system: HCT-15
SK-MEL-5 = test system: SK-MEL-5
HT-29 = test system: HT-29
SNB-19 = test system: SNB-19
SK-MEL-28 = test system: SK-MEL-28
786-0 = test system: 786-0
OVCAR-3 = test system: OVCAR-3
CCRF-CEM = test system: CCRF-CEM
U-251 = test system: U-251
OVCAR-5 = test system: OVCAR-5
UO-31 = test system: UO-31
COLO 205 = test system: COLO 205
NCI-H522 = test system: NCI-H522
SNB-75 = test system: SNB-75
SK-OV-3 = test system: SK-OV-3
NCI/ADR-RES = test system: NCI/ADR-RES
HOP-62 = test system: HOP-62
A549 = test system: A549
Hs-578T = test system: Hs-578T
MDA-MB-231 = test system: MDA-MB-231
SK-MEL-2 = test system: SK-MEL-2
SF-539 = test system: SF-539
K562 = test system: K562
OVCAR-4 = test system: OVCAR-4
SN12C = test system: SN12C
PC-3 = test system: PC-3
IGROV-1 = test system: IGROV-1
Malme-3M = test system: Malme-3M
RPMI-8226 = test system: RPMI-8226
NCI-H460 = test system: NCI-H460
NCI-H23 = test system: NCI-H23
OVCAR-8 = test system: OVCAR-8
SR = test system: SR
M14 = test system: M14
A498 = test system: A498
UACC-257 = test system: UACC-257
T47D = test system: T47D
SW-620 = test system: SW-620
HL-60 = test system: HL-60
MDA-N = test system: MDA-N
HOP-92 = test system: HOP-92
EKVX = test system: EKVX
MOLT-4 = test system: MOLT-4
KM12 = test system: KM12
UACC-62 = test system: UACC-62
BT-549 = test system: BT-549
LOX IMVI = test system: LOX IMVI
CAKI-1 = test system: CAKI-1
DU-145 = test system: DU-145
NCI-H226 = test system: NCI-H226
TK-10 = test system: TK-10
HCC 2998 = test system: HCC 2998
MDA-MB-435 = test system: MDA-MB-435
DLD-1 = test system: DLD-1
KM-20L2 = test system: KM-20L2
M19-MEL = test system: M19-MEL
DMS-114 = test system: DMS-114
LXFL 529 = test system: LXFL 529

In the case of `Cc1cc(C)c(NC(=S)NC(=O)c2ccccc2)cc1C`, the GI50 (HCT-116) is reported as > 100 µM (inactive), the GI50 (ACHN) is reported as > 100 µM (inactive) and the GI50 (RXF 393) is reported as > 100 µM (inactive). The GI50 (MCF7) was 38.2 µM (inactive), the GI50 (SF-295) was 34.4 µM (inactive) and the GI50 (SF-268) was > 100 µM (inactive). The GI50 (HCT-15) was 93.1 µM, the GI50 (SK-MEL-5) was 25.2 µM (inactive) and the GI50 (HT-29) was > 100 µM (inactive). For the same molecule, the GI50 (SNB-19) was > 100 µM (inactive), the GI50 (SK-MEL-28) was > 100 µM (inactive) and the GI50 (786-0) was > 100 µM (inactive). The GI50 (OVCAR-3) was > 100 µM (inactive), the GI50 (CCRF-CEM) was > 100 µM (inactive) and the GI50 (U-251) was 64.1 µM (inactive). For the same molecule, the GI50 (OVCAR-5) was > 100 µM (inactive), the GI50 (UO-31) was > 100 µM (inactive) and the GI50 (COLO 205) was > 100 µM (inactive). The GI50 (NCI-H522) was > 100 µM (inactive), the GI50 (SNB-75) was > 100 µM (inactive) and the GI50 (SK-OV-3) was > 100 µM (inactive). For the same molecule, the GI50 (NCI/ADR-RES) was > 100 µM (inactive), the GI50 (HOP-62) was > 100 µM (inactive) and the GI50 (A549) was > 100 µM (inactive). The GI50 (Hs-578T) was > 100 µM (inactive), the GI50 (MDA-MB-231) was > 100 µM (inactive) and the GI50 (SK-MEL-2) was > 100 µM (inactive). For the same molecule, the GI50 (SF-539) was > 100 µM (inactive), the GI50 (K562) was 74 µM (inactive) and the GI50 (OVCAR-4) was 61.2 µM (inactive). For the same molecule, the GI50 (SN12C) was > 100 µM (inactive), the GI50 (PC-3) was 67.3 µM (inactive) and the GI50 (IGROV-1) was > 100 µM (inactive). The GI50 (Malme-3M) was > 100 µM (inactive), the GI50 (RPMI-8226) was > 100 µM (inactive) and the GI50 (NCI-H460) was > 100 µM (inactive). The GI50 (NCI-H23) was > 100 µM (inactive), the GI50 (OVCAR-8) was > 100 µM (inactive) and the GI50 (SR) was 37.7 µM (inactive). For the same molecule, the GI50 (M14) was > 100 µM (inactive), the GI50 (A498) was > 100 µM (inactive) and the GI50 (UACC-257) was 84.7 µM (inactive). For the same molecule, the GI50 (T47D) was 55.7 µM (inactive), the GI50 (SW-620) was > 100 µM (inactive) and the GI50 (HL-60) was > 100 µM (inactive). The GI50 (MDA-N) was 78.9 µM (inactive), the GI50 (HOP-92) was > 100 µM (inactive) and the GI50 (EKVX) was > 100 µM (inactive). The GI50 (MOLT-4) was 93.5 µM (inactive), the GI50 (KM12) was > 100 µM (inactive) and the GI50 (UACC-62) was > 100 µM (inactive). The GI50 (BT-549) was > 100 µM (inactive), the GI50 (LOX IMVI) was > 100 µM (inactive) and the GI50 (CAKI-1) was > 100 µM (inactive). For the same molecule, the GI50 (DU-145) was > 100 µM (inactive), the GI50 (NCI-H226) was > 100 µM (inactive) and the GI50 (TK-10) was > 100 µM (inactive). The GI50 (HCC 2998) was > 100 µM (inactive) and the GI50 (MDA-MB-435) was 52.8 µM (inactive).

With `CC(C)NC(=O)OCc1c(COC(=O)NC(C)C)c(-c2ccc[n+](COC(=O)C(C)(C)C)c2)n2c1CCC2` the GI50 (HCT-116) was > 91.6 µM (inactive), the GI50 (ACHN) was 38.8 µM (inactive) and the GI50 (RXF 393) was 30.5 µM (inactive). For the same molecule, the GI50 (MCF7) was 57.5 µM (inactive), the GI50 (SF-295) was 65 µM (inactive) and the GI50 (SF-268) was 57.7 µM (inactive). The GI50 (HCT-15) was > 100 µM, the GI50 (SK-MEL-5) was > 95.5 µM (inactive) and the GI50 (HT-29) was > 100 µM (inactive). The GI50 (SNB-19) was > 100 µM (inactive), the GI50 (SK-MEL-28) was > 100 µM (inactive) and the GI50 (786-0) was 40.7 µM (inactive). For the same molecule, the GI50 (OVCAR-3) was > 100 µM (inactive), the GI50 (CCRF-CEM) was 24.9 µM (inactive) and the GI50 (U-251) was > 76.9 µM (inactive). For the same molecule, the GI50 (OVCAR-5) was > 100 µM (inactive), the GI50 (UO-31) was 64.7 µM (inactive) and the GI50 (COLO 205) was > 93.5 µM (inactive). The GI50 (NCI-H522) was 35 µM (inactive), the GI50 (SNB-75) was > 89.1 µM (inactive) and the GI50 (SK-OV-3) was > 74.1 µM (inactive). For the same molecule, the GI50 (NCI/ADR-RES) was > 73.1 µM (inactive), the GI50 (HOP-62) was > 71.1 µM (inactive) and the GI50 (A549) was 99.1 µM (inactive). The GI50 (Hs-578T) was > 67.5 µM (inactive), the GI50 (MDA-MB-231) was > 100 µM (inactive) and the GI50 (SK-MEL-2) was > 73.6 µM (inactive). The GI50 (SF-539) was 43.4 µM (inactive), the GI50 (K562) was 99.8 µM (inactive) and the GI50 (OVCAR-4) was > 79.3 µM (inactive). For the same molecule, the GI50 (SN12C) was 54.1 µM (inactive), the GI50 (PC-3) was > 86.7 µM (inactive) and the GI50 (IGROV-1) was > 80.7 µM (inactive). For the same molecule, the GI50 (Malme-3M) was > 100 µM (inactive), the GI50 (RPMI-8226) was > 100 µM (inactive) and the GI50 (NCI-H460) was 40.9 µM (inactive). The GI50 (NCI-H23) was 53.1 µM (inactive), the GI50 (OVCAR-8) was > 76.6 µM (inactive) and the GI50 (SR) was > 70.8 µM (inactive). The GI50 (M14) was > 84.1 µM (inactive), the GI50 (A498) was 32.7 µM (inactive) and the GI50 (UACC-257) was > 100 µM (inactive). The GI50 (T47D) was > 100 µM (inactive), the GI50 (SW-620) was > 100 µM (inactive) and the GI50 (HL-60) was > 53.2 µM (inactive). The GI50 (MDA-N) was > 100 µM (inactive), the GI50 (HOP-92) was > 91.6 µM (inactive) and the GI50 (EKVX) was > 100 µM (inactive). The GI50 (MOLT-4) was 48.2 µM (inactive), the GI50 (KM12) was > 100 µM (inactive) and the GI50 (UACC-62) was 35.5 µM (inactive). The GI50 (BT-549) was > 100 µM (inactive), the GI50 (LOX IMVI) was 46.6 µM (inactive) and the GI50 (CAKI-1) was 27.6 µM (inactive). For the same molecule, the GI50 (DU-145) was > 91.4 µM (inactive), the GI50 (NCI-H226) was > 91 µM (inactive) and the GI50 (TK-10) was > 100 µM (inactive). The GI50 (HCC 2998) was > 100 µM (inactive) and the GI50 (MDA-MB-435) was > 100 µM (inactive).

In the case of `CC(=O)CC(=O)/C=C/c1cccs1`, the GI50 (HCT-116) is reported as 40.7 µM (inactive), the GI50 (ACHN) is reported as 97.3 µM (inactive) and the GI50 (DLD-1) is reported as 44 µM (inactive). The GI50 (KM-20L2) was 98.6 µM (inactive), the GI50 (SF-295) was > 100 µM (inactive) and the GI50 (SF-268) was 45 µM (inactive). For the same molecule, the GI50 (HCT-15) was 47.8 µM, the GI50 (M19-MEL) was 83.9 µM (inactive) and the GI50 (SK-MEL-5) was 37.1 µM (inactive). For the same molecule, the GI50 (HT-29) was 58.9 µM (inactive), the GI50 (SNB-19) was > 100 µM (inactive) and the GI50 (786-0) was 99.5 µM (inactive). The GI50 (OVCAR-3) was > 100 µM (inactive), the GI50 (CCRF-CEM) was 38.5 µM (inactive) and the GI50 (U-251) was > 100 µM (inactive). For the same molecule, the GI50 (OVCAR-5) was > 100 µM (inactive), the GI50 (UO-31) was 93.3 µM (inactive) and the GI50 (COLO 205) was > 100 µM (inactive). The GI50 (NCI-H522) was 42.3 µM (inactive), the GI50 (SK-OV-3) was > 100 µM (inactive) and the GI50 (HOP-62) was > 100 µM (inactive). The GI50 (A549) was > 100 µM (inactive), the GI50 (SK-MEL-2) was > 100 µM (inactive) and the GI50 (SF-539) was 31.6 µM (inactive). For the same molecule, the GI50 (K562) was 47.1 µM (inactive), the GI50 (OVCAR-4) was 87.5 µM (inactive) and the GI50 (SN12C) was 63 µM (inactive). The GI50 (IGROV-1) was > 100 µM (inactive), the GI50 (Malme-3M) was 58.2 µM (inactive) and the GI50 (RPMI-8226) was 34.6 µM (inactive). The GI50 (NCI-H460) was 64.1 µM (inactive), the GI50 (NCI-H23) was > 100 µM (inactive) and the GI50 (OVCAR-8) was > 100 µM (inactive). The GI50 (SR) was 48.1 µM (inactive), the GI50 (M14) was 54.2 µM (inactive) and the GI50 (A498) was 64.9 µM (inactive). For the same molecule, the GI50 (UACC-257) was > 100 µM (inactive), the GI50 (SW-620) was 70.1 µM (inactive) and the GI50 (HL-60) was 27.9 µM (inactive). The GI50 (EKVX) was > 100 µM (inactive), the GI50 (MOLT-4) was > 100 µM (inactive) and the GI50 (DMS-114) was 59.4 µM (inactive). The GI50 (LXFL 529) was 85.3 µM (inactive), the GI50 (KM12) was 55.2 µM (inactive) and the GI50 (UACC-62) was 44.6 µM (inactive). The GI50 (LOX IMVI) was 55.2 µM (inactive), the GI50 (CAKI-1) was > 100 µM (inactive) and the GI50 (NCI-H226) was > 100 µM (inactive). The GI50 (TK-10) was > 100 µM (inactive).
